The values that follow come from ChEMBL document CHEMBL4346729, “The discovery of novel 3-aryl-indazole derivatives as peripherally restricted pan-Trk inhibitors for the treatment of pain” (Bioorg Med Chem Lett, 2019).

Usually Papp A→B stands for the apparent permeability from the apical to the basolateral side of a cell layer. As usually defined, the solubility is the dissolved amount per volume that the medium holds.

Each structure is given as a SMILES string. Converted amounts (≈) assume the structure as drawn. The source made the active and inactive calls. The calls are words filed in the database; no cut-off is given here.

Data set [1] is described as follows: Intrinsic clearance in human liver microsomes. The following applies: read-out: CLH. Type of data set: ADME, Microsome.
A short description of data set [2]: Apparent permeability from apical to basolateral side in MDCK cells at 50 umol/L at pH 7.4 incubated for 30 mins by LC-MS/MS analysis. Type of data set: ADME, cell-based, Canis lupus familiaris. The following applies: dog.
Data set [3] can be described thus: Solubility of test compound. The format is physicochemical.
Data set [4] in a line: Apparent permeability from apical to basolateral side in MDCK cells at 50 umol/L at pH 6.5 incubated for 30 mins by LC-MS/MS analysis. Type of data set: ADME, cell-based, Canis lupus familiaris. The following applies: dog.
The next data set relates to Rattus norvegicus. The data set is described as follows: Antinociceptive activity in CFA induced thermal hypersensitivity Sprague-Dawley rat model assessed as increase in paw withdrawal latency at 100 mg/kg, po after 1 hr. Type of data set: functional, organism-based.

As to `CC(C)(Nc1ccc2[nH]nc(-c3ccc(N4CCNCC4)nc3)c2c1)c1ccccc1`, the CLint scaled in data set [1] amounted to 1740 mL/min/kg. Also, the apparent permeability from apical to basolateral (Papp A→B) at 0.5 h, 50 µM in data set [2] is 11 ×10⁻⁶ cm/s.

As for `c1ccc(CNc2ccc3[nH]nc(-c4ccc(N5CCNCC5)nc4)c3c2)cc1`, the CLint scaled in data set [1] stood at 12 mL/min/kg. Besides, the apical-to-basolateral permeability (Papp A→B) at 0.5 h, 50 µM in data set [2] is 13 ×10⁻⁶ cm/s.

Consider `Cn1ccc(-c2n[nH]c3ccc(NCc4cc(F)ccc4S(C)(=O)=O)cc23)n1`, for which, in data set [1], the CLint scaled stood at 137 mL/min/kg. Further, the solubility in data set [3] came to 80.1 µM (≈ 32 µg/mL). The Papp A→B at 0.5 h, 50 µM in data set [2] turned out to be 34 ×10⁻⁶ cm/s.

Consider `COc1ccc(-c2n[nH]c3ccc(NCc4ccccc4NS(C)(=O)=O)cc23)cn1`, for which the CLint scaled in data set [1] was 359 mL/min/kg.

Consider `CS(=O)(=O)c1ccc(F)cc1CNc1ccc2[nH]nc(-c3ccccn3)c2c1`, for which the CLint scaled in data set [1] is 443 mL/min/kg. This compound yielded a solubility in data set [3] of 15.2 µM (≈ 6.03 µg/mL). Moreover, the Papp A→B at 0.5 h, 50 µM in data set [2] is 73.2 ×10⁻⁶ cm/s.

For `CS(=O)(=O)c1ccccc1CNc1ccc2[nH]nc(-c3ccc(N4CCNCC4)nc3)c2c1`, the CLint scaled in data set [1] amounted to 74 mL/min/kg. In addition, the Papp A→B at 0.5 h, 50 µM amounted to 0.4 ×10⁻⁶ cm/s in data set [4] and 12.5 ×10⁻⁶ cm/s in data set [2].

On to `CS(=O)(=O)Nc1ccccc1CNc1ccc2[nH]nc(-c3ccc(N4CCNCC4)nc3)c2c1`, for which the CLint scaled in data set [1] was in the range of 69.5 to 70 mL/min/kg. Further, in data set [2], the Papp A→B at 0.5 h, 50 µM is 1.2 ×10⁻⁶ cm/s.

Take `CN(Cc1ccccc1)c1ccc2[nH]nc(-c3ccc(N4CCNCC4)nc3)c2c1`: the CLint scaled in data set [1] was found to be 417 mL/min/kg. Also, the Papp A→B at 0.5 h, 50 µM in data set [2] was 7.3 ×10⁻⁶ cm/s.

`CS(=O)(=O)c1ccc(F)cc1CNc1ccc2[nH]nc(-c3ccc(N4CCNCC4)nc3)c2c1`: the CLint scaled in data set [1] lay within 176 to 178 mL/min/kg. The Papp A→B at 0.5 h, 50 µM in data set [4] was 0.3 ×10⁻⁶ cm/s; in data set [2] it was 0.3 to 0.4 ×10⁻⁶ cm/s. In addition, the solubility in data set [3] amounted to 38.7 µM (≈ 18.6 µg/mL).

In the case of `CS(=O)(=O)c1ccc(F)cc1CNc1ccc2[nH]nc(-c3cccnc3)c2c1`, the CLint scaled in data set [1] is 793 mL/min/kg. This compound registered a solubility in data set [3] of 23 µM (≈ 9.12 µg/mL). Besides, the Papp A→B at 0.5 h, 50 µM in data set [2] came out at 61.5 ×10⁻⁶ cm/s.

With `CC(C)Cc1ccc(C(C)C(=O)O)cc1` (stereo unspecified), the outcome with Rattus norvegicus was Active.

As to `COc1cccc(-c2n[nH]c3ccc(NCc4ccccc4NS(C)(=O)=O)cc23)n1`, the CLint scaled in data set [1] was determined as 833 mL/min/kg.

For `c1ccc(COc2ccc3[nH]nc(-c4ccc(N5CCNCC5)nc4)c3c2)cc1`, in data set [1], the CLint scaled worked out at 694 mL/min/kg. Also, the Papp A→B at 0.5 h, 50 µM in data set [2] turned out to be 9.6 ×10⁻⁶ cm/s.

Consider `CS(=O)(=O)Nc1ccccc1CNc1ccc2[nH]nc(-c3ccc(NC4CCNCC4)nc3)c2c1`, for which, in data set [1], the CLint scaled came to 184 mL/min/kg. In addition, in data set [2], the Papp A→B at 0.5 h, 50 µM was determined as 0.3 ×10⁻⁶ cm/s.

With `c1ccc(CCc2ccc3[nH]nc(-c4ccc(N5CCNCC5)nc4)c3c2)cc1`, the CLint scaled in data set [1] was 2730 mL/min/kg. Moreover, the Papp A→B at 0.5 h, 50 µM in data set [2] amounted to 3.1 ×10⁻⁶ cm/s.

As for `CS(=O)(=O)Nc1ccccc1CNc1ccc2[nH]nc(-c3ccc(OC4CCNCC4)nc3)c2c1`, the CLint scaled in data set [1] turned out to be 323 mL/min/kg. The Papp A→B at 0.5 h, 50 µM in data set [2] was found to be 0.3 ×10⁻⁶ cm/s.

`COc1cncc(-c2n[nH]c3ccc(NCc4ccccc4NS(C)(=O)=O)cc23)c1`: the CLint scaled in data set [1] is 217 mL/min/kg.
